This note sets out measurements from ChEMBL document CHEMBL1158153, “Novel H3 receptor antagonists with improved pharmacokinetic profiles” (Bioorg Med Chem Lett, 2008).

In general, Ki refers to a dissociation constant, usually derived from enzyme kinetics or from competition with a known ligand. Low readings indicate higher affinity, high ones lower affinity. For orientation: half-life means how long it takes for the measured level to halve. The Tmax is the time at which the peak concentration occurs. As usually defined, the bioavailability is the share of a dose that reaches the circulation, judged against a reference dose that is usually intravenous.

Data set [1] has as its target Histamine H3 receptor (Rattus norvegicus, UniProt Q9QYN8). Put plainly: Displacement of N-[3H]methylhistamine from histamine H3 receptor in rat cortex membrane. The class given is cell membranes.
Data set [2] in a line: Half life in rat at 10 mg/kg, po. The class given is ADME, organism-based. Also on record: dose 10 mg/kg, route oral. To be noted: in vivo.
Data set [3] can be described thus: Tmax in rat at 10 mg/kg, po. The class given is ADME, organism-based. On the set-up: dose 10 mg/kg, route oral. To be noted: in vivo.
The nature of data set [4]: Bioavailability in rat at 10 mg/kg, po. The class given is ADME, organism-based. To be noted: in vivo.
The species entered for another data set is Rattus norvegicus. Put plainly: Inhibition of R(-)-alpha-methylhistamine-induced drinking response in rat dipsogenia model after 0.5 hrs. The class given is functional, organism-based.
The target in data set [5] is T1, Histamine H3 receptor (Homo sapiens, UniProt Q9Y5N1). Put plainly: Antagonist activity at human histamine H3 receptor expressed in CHOK1 cells by [3H]R(-)-alpha-methylhistamine displacement assay. Format: cell-based, CHO-K1.
The target in data set [6] is T1, Histamine H3 receptor. As to the kind of experiment: Inverse agonist activity at human H3 receptor expressed in CHOK1 cells by GTPgammaS binding assay. Format: functional, cell-based, CHO-K1.

T1 sequence (Q9Y5N1 whole entry): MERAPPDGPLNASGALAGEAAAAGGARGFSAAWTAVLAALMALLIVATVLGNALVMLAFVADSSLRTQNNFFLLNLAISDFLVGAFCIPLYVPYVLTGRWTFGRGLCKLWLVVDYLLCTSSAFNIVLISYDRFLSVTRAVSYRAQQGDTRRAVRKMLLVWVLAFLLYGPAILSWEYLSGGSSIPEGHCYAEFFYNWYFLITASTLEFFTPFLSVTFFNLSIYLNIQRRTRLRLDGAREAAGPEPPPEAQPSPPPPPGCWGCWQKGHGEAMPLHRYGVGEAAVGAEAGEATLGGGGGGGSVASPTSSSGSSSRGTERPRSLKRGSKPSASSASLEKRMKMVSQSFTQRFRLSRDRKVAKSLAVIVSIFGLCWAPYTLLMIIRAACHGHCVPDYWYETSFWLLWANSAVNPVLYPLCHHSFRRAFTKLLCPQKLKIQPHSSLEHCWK
Chain of Histamine H3 receptor (Rattus norvegicus, UniProt Q9QYN8) (Q9QYN8 whole entry): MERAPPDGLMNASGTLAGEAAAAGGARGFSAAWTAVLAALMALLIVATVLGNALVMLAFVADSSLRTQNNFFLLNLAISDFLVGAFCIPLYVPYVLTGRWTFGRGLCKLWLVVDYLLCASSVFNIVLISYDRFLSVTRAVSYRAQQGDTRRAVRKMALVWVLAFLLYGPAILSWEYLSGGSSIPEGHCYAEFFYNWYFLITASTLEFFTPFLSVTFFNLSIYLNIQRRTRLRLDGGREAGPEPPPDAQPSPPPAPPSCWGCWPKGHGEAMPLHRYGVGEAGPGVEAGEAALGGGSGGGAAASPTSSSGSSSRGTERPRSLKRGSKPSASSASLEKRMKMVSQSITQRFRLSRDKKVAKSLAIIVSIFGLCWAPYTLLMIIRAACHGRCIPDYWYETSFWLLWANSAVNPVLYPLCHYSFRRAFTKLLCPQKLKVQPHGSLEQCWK

The compound `CC(C)C(=O)N1C[C@@H]2CC=C(c3ccc(CCN4CCCC4)cc3)[C@@H]2C1` had a Ki on Histamine H3 receptor [1] of 5 nM.
`O=C(Cc1ccccc1)N1C[C@@H]2CC=C(c3ccc(CCN4CCCC4)cc3)[C@@H]2C1` had a Ki at Histamine H3 receptor [1] of 7 nM.
Same read-out and setting: then `O=C(c1ccccc1)N1C[C@@H]2CC=C(c3ccc(CCN4CCCC4)cc3)[C@@H]2C1`, with 21 nM; and `C[C@@H]1CCCN1CCc1ccc(C2=CC[C@H]3CN(C(=O)c4cccnc4)C[C@@H]23)cc1`, with 1 nM.
Compound `CC(C)NC(=O)N1C[C@@H]2CC=C(c3ccc(CCN4CCCC4)cc3)[C@@H]2C1` had a half-life in data set [2] of 7.3 h. In addition, the affinity on Histamine H3 receptor [1], expressed as Ki, was 20 nM. Also, in data set [3], the Tmax came to 0.3 h. The compound also displayed a bioavailability in data set [4] of 22%.
The like results for `O=C(CO)N1C[C@@H]2CC=C(c3ccc(CCN4CCCC4)cc3)[C@@H]2C1` were, in that order, 1.8 h, 6 nM, 0.6 h and 39%.
`O=C(c1cccnc1)N1C[C@@H]2CC=C(c3ccc(CCN4CCCC4)cc3)[C@@H]2C1` registered a Ki at Histamine H3 receptor [1] of 6 nM.
For `O=C(NC1CCCC1)N1C[C@@H]2CC=C(c3ccc(CCN4CCCC4)cc3)[C@@H]2C1`, affinity at Histamine H3 receptor [1] was put at a Ki of 16 nM.
Turning to `O=S(=O)(c1ccccc1)N1C[C@@H]2CC=C(c3ccc(CCN4CCCC4)cc3)[C@@H]2C1`, on Histamine H3 receptor [1], the affinity corresponds to a Ki of 17 nM.
`C[C@@H]1CCCN1CCc1ccc(C2=CC[C@H]3CN(C(=O)C4CCOCC4)C[C@@H]23)cc1` showed a half-life in data set [2] of 2.5 h. Also, the Activity entry in the data set filed under Rattus norvegicus was “Dose-dependent effect”. For the same compound, the Ki at Histamine H3 receptor [1] is 0.7 nM; at Histamine H3 receptor [5], 2 nM; at Histamine H3 receptor [6] it was 4 nM. In addition, the Tmax in data set [3] amounted to 0.3 h. This compound also had a bioavailability in data set [4] of 66%.
The compound `O=S(=O)(Cc1ccccc1)N1C[C@@H]2CC=C(c3ccc(CCN4CCCC4)cc3)[C@@H]2C1` showed a Ki at Histamine H3 receptor [1] of 12 nM.
As for `CC(C)C(=O)N1C[C@@H]2CC=C(c3ccc(CCN4CCC[C@H]4C)cc3)[C@@H]2C1`, on Histamine H3 receptor [1], affinity was put at a Ki of 0.4 nM.
`C[C@@H]1CCCN1CCc1ccc(C2=CC[C@H]3CN(C(=O)C4CCCC4)C[C@@H]23)cc1`: affinity at Histamine H3 receptor [1] was put at a Ki of 0.4 nM.
For the compound `O=C(C1CCCC1)N1C[C@@H]2CC=C(c3ccc(CCN4CCCC4)cc3)[C@@H]2C1`, the Ki at Histamine H3 receptor [1] turned out to be 3 nM.
In data set [2], `CC(C)S(=O)(=O)N1C[C@@H]2CC=C(c3ccc(CCN4CCCC4)cc3)[C@@H]2C1` had a half-life of 5 h. On Histamine H3 receptor [1], the Ki was 12 nM. Also, the Tmax in data set [3] stood at 0.2 h. The compound also came in with a bioavailability in data set [4] of 3%.
`CN(C)C(=O)N1C[C@@H]2CC=C(c3ccc(CCN4CCCC4)cc3)[C@@H]2C1` yielded a Ki at Histamine H3 receptor [1] of 13 nM.
Turning to `O=C(C1CCOC1)N1C[C@@H]2CC=C(c3ccc(CCN4CCCC4)cc3)[C@@H]2C1` (stereo not given in full), the Ki at Histamine H3 receptor [1] was determined as 4 nM.
`C1=C(c2ccc(CCN3CCCC3)cc2)[C@@H]2CN(CC3CC3)C[C@@H]2C1` showed a half-life in data set [2] of 6 h. For the same compound, the Tmax in data set [3] turned out to be 6 h. Besides, the values for the Ki on Histamine H3 receptor [5] and at Histamine H3 receptor [6] were 0.9 nM and 1 nM, respectively.
Regarding `C[C@@H]1CCCN1CCc1ccc(C2=CC[C@H]3CN(C(=O)Cc4ccccc4)C[C@@H]23)cc1`, on Histamine H3 receptor [1], the Ki amounted to 0.3 nM. This lies in the sub-nanomolar range.
On Histamine H3 receptor [1], `C[C@@H]1CCCN1CCc1ccc(C2=CC[C@H]3CN(C(=O)c4ccccc4)C[C@@H]23)cc1` came in with a Ki of 3 nM.
Take `O=C(N1CCOCC1)N1C[C@@H]2CC=C(c3ccc(CCN4CCCC4)cc3)[C@@H]2C1`: the Ki on Histamine H3 receptor [1] came to 12 nM. Against the preceding compound, the Ki is about 4-fold higher.
Still for that read-out and setting: then `CS(=O)(=O)N1C[C@@H]2CC=C(c3ccc(CCN4CCCC4)cc3)[C@@H]2C1`, with 27 nM.
